Tested on: PBMC
Type: cell-based, human

## RGILKRNSSSSSTDS [Peptide 5-HUMAN-B, reference compound]
  % Inhibition by HLA-DR blocking Ab: 100%

Source: US10286063B2 (priority 2015, dated 2019)
